Measurements: publication PMC4456664, “The HAB1 PP2C is inhibited by ABA-dependent PYL10 interaction” (Scientific Reports, 2015)

Molecular target: T1, PYL10 (Arabidopsis thaliana, UniProt Q8H1R0)
T1 sequence (Q8H1R0 1-183): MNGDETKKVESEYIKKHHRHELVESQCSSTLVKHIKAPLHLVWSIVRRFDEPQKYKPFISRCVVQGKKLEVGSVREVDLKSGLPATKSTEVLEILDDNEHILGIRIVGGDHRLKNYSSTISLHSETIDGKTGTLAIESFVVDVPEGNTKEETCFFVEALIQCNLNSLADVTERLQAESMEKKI
Test: ITC at […] °C, pH […]; supported by 1H-15N HSQC NMR titration and HAB1 phosphatase assay
Assay type: binding

How did the Kd turn out when CC1=CC(=O)CC(C)(C)[C@@]1(O)/C=C/C(C)=C\C(=O)O [abscisic acid] was run?
The Kd was 66.2 ± 13.9 µM.
